Measured values taken from the supplement of paper PMC10627819.

Experiments:
Experiment in all cases: fitness (endpoint OD595 vs no drug) (fraction); higher = more growth
S. aureus DSM 20231 = test system: S. aureus DSM 20231
Summary of the method: (§1)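 Fitness is computed from the optical density at which cultures reach stationary phase, divided by the robust mean of no-drug control wells. Any value above 1 is set to 1. Cultures started at OD595 0.01 in 384-well plates with TSB, LB Lennox or CY at 37 °C, and OD595 was read every 30 min for 14 h against a first-reading background.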

S. pneumoniae D39V = test system: S. pneumoniae D39V
Summary of the method: as §1

B. subtilis 168 = test system: B. subtilis 168
Summary of the method: as §1
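Also: OD595 on entry to stationary phase over no-drug wells; at most 1.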

CN(C)[C@@H]1C(O)=C(C(N)=O)C(=O)[C@@]2(O)C(O)=C3C(=O)c4c(O)ccc(Cl)c4[C@@](C)(O)[C@H]3C[C@@H]12 [Chlortetracycline] + CC(=O)NC[C@H]1CN(c2ccc(N3CCOCC3)c(F)c2)C(=O)O1 [Linezolid]
one replicate
Conditions	fitness
B. subtilis 168, first compound 0.0475 µg/mL, partner 0.0625 µg/mL	0.751
B. subtilis 168, first compound 0.095 µg/mL, partner 0.0625 µg/mL	0.53
B. subtilis 168, first compound 0.19 µg/mL, partner 0.0625 µg/mL	0.213
S. aureus DSM 20231, first compound 0.006 µg/mL, partner 0.125 µg/mL	0.649
S. aureus DSM 20231, first compound 0.006 µg/mL, partner 0.25 µg/mL	0.59
S. aureus DSM 20231, first compound 0.006 µg/mL, partner 0.5 µg/mL	0.213
S. aureus DSM 20231, first compound 0.012 µg/mL, partner 1 µg/mL	0.0536
S. aureus DSM 20231, first compound 0.024 µg/mL, partner 1 µg/mL	0.0397
S. aureus DSM 20231, first compound 0.048 µg/mL, partner 1 µg/mL	0.0171

Conditions	fitness
B. subtilis 168, first compound 0.0475 µg/mL, partner 0.25 µg/mL	0.0413
B. subtilis 168, first compound 0.0475 µg/mL, partner 0.5 µg/mL	0.0371
B. subtilis 168, first compound 0.095 µg/mL, partner 0.25 µg/mL	0.0555
B. subtilis 168, first compound 0.095 µg/mL, partner 0.5 µg/mL	0.0371
B. subtilis 168, first compound 0.19 µg/mL, partner 0.125 µg/mL	0.0875
B. subtilis 168, first compound 0.19 µg/mL, partner 0.25 µg/mL	0.0467
B. subtilis 168, first compound 0.19 µg/mL, partner 0.5 µg/mL	0.0344
S. aureus DSM 20231, first compound 0.012 µg/mL, partner 0.125 µg/mL	0.516
S. aureus DSM 20231, first compound 0.012 µg/mL, partner 0.25 µg/mL	0.423
S. aureus DSM 20231, first compound 0.012 µg/mL, partner 0.5 µg/mL	0.135
S. aureus DSM 20231, first compound 0.024 µg/mL, partner 0.25 µg/mL	0.179
S. aureus DSM 20231, first compound 0.024 µg/mL, partner 0.5 µg/mL	0.0849
S. aureus DSM 20231, first compound 0.048 µg/mL, partner 0.125 µg/mL	0.141
S. aureus DSM 20231, first compound 0.048 µg/mL, partner 0.25 µg/mL	0.0729
S. aureus DSM 20231, first compound 0.048 µg/mL, partner 0.5 µg/mL	0.0288
S. pneumoniae D39V, first compound 0.012 µg/mL, partner 0.105 µg/mL	0.785
S. pneumoniae D39V, first compound 0.012 µg/mL, partner 0.21 µg/mL	0.685
S. pneumoniae D39V, first compound 0.012 µg/mL, partner 0.42 µg/mL	0.422
S. pneumoniae D39V, first compound 0.024 µg/mL, partner 0.105 µg/mL	0.739
S. pneumoniae D39V, first compound 0.024 µg/mL, partner 0.21 µg/mL	0.585
S. pneumoniae D39V, first compound 0.024 µg/mL, partner 0.42 µg/mL	0.251
S. pneumoniae D39V, first compound 0.048 µg/mL, partner 0.105 µg/mL	0.609
S. pneumoniae D39V, first compound 0.048 µg/mL, partner 0.21 µg/mL	0.387
S. pneumoniae D39V, first compound 0.048 µg/mL, partner 0.42 µg/mL	0.211
S. pneumoniae D39V, first compound 0.375 µg/mL, partner 0.2 µg/mL	0.0262
S. pneumoniae D39V, first compound 0.375 µg/mL, partner 0.4 µg/mL	0.028
S. pneumoniae D39V, first compound 0.375 µg/mL, partner 0.8 µg/mL	0.0276
S. pneumoniae D39V, first compound 0.75 µg/mL, partner 0.2 µg/mL	0.025
S. pneumoniae D39V, first compound 0.75 µg/mL, partner 0.4 µg/mL	0.04
S. pneumoniae D39V, first compound 0.75 µg/mL, partner 0.8 µg/mL	0.0503
S. pneumoniae D39V, first compound 1.5 µg/mL, partner 0.2 µg/mL	0.0494
S. pneumoniae D39V, first compound 1.5 µg/mL, partner 0.4 µg/mL	0.0334
S. pneumoniae D39V, first compound 1.5 µg/mL, partner 0.8 µg/mL	0.044
